Experimental data reported in patent US12624034B2, “Non-covalent modifiers of AKT1 and uses thereof” (Terremoto Biosciences, Inc., priority 2023, dated 2026).
Like-named read-outs stand apart in the source and are kept apart here.

Experiments:
AKT2 = target: T1, AKT2 (Homo sapiens, UniProt P31751); assay: Live cell AKT2 target engagement by NanoBRET competitive probe displacement in HEK293 cells; format: binding; conditions: 2 h at 37° C., read-out: AKT2 IC50
T1 construct: expressed in transfected cells; host or cells: HEK293

AKT1 WT = target: T2, AKT1 WT (Homo sapiens, UniProt P31749); assay: Live cell AKT1 WT target engagement by NanoBRET competitive probe displacement in HEK293 cells; format: binding; conditions: 2 h at 37° C., read-out: AKT1 WT IC50
T2 construct: expressed in transfected cells; host or cells: HEK293

[1] = NanoBRET competitive probe displacement, live HEK293 cells
[2] = NanoBRET live cell target engagement, HEK293 cells

T1 sequence (P31751 whole entry): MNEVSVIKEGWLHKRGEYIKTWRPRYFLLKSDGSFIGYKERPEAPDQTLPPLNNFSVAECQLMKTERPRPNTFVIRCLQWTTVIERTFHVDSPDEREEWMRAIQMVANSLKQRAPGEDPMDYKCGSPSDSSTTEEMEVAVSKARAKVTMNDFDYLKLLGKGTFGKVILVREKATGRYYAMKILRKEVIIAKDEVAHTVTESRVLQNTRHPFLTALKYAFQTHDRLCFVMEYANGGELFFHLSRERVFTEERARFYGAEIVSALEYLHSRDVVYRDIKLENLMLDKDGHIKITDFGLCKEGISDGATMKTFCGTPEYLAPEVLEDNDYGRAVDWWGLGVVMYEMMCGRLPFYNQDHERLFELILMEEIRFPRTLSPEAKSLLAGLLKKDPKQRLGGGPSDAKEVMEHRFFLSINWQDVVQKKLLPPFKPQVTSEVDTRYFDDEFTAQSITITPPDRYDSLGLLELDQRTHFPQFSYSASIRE
T2 sequence (P31749 whole entry): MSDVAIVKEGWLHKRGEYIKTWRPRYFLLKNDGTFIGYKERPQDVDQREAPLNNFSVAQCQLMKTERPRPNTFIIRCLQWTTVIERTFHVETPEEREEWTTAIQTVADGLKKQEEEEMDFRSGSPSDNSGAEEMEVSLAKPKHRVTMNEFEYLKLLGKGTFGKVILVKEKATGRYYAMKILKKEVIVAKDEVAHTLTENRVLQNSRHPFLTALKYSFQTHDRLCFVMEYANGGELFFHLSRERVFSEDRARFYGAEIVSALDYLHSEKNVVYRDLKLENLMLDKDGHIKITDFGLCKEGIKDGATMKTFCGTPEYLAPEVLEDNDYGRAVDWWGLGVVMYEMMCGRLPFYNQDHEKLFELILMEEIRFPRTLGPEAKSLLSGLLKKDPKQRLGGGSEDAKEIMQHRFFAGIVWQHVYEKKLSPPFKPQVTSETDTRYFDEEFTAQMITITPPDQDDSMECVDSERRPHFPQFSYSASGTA

Compound	IC50 (AKT2; [1])	IC50 (AKT1 WT; [1])	IC50 (AKT2; [2])	IC50 (AKT1 WT; [2])
COCc1cc(C(=O)N[C@H]2CCc3cc(-n4c(-c5cccnc5N)nc5ccc(-n6cccn6)nc54)ccc32)ccc1O [Compound 410, (S)—N-(5-(2-(2-aminopyridin-3-yl)-5-(1H-pyrazol-1-yl)-3H-imidazo[4,5-b]pyridin-3-yl)-2,3-dihydro-1H-inden-1-yl)-4-hydroxy-3-(methoxymethyl)benzamide]	0.0576 µM	0.00743 µM		
CN1CC(Oc2ccn(-c3ccc4nc(-c5cccnc5N)n(-c5ccc6c(c5)CC[C@@H]6NC5CCN(C(=O)C6CC6)CC5)c4n3)n2)C1 [Compound 566]	0.246 µM	0.0105 µM		
COc1cc(-n2cccn2)nc2c1nc(-c1cccnc1N)n2-c1ccc2c(c1)CC[C@@H]2NC(=O)c1ccc(C(F)F)nc1 [Compound 122, (S)—N-(5-(2-(2-aminopyridin-3-yl)-7-methoxy-5-(1H-pyrazol-1-yl)-3H-imidazo[4,5-b]pyridin-3-yl)-2,3-dihydro-1H-inden-1-yl)-6-(difluoromethyl)nicotinamide]			0.0346 µM	0.0106 µM
Nc1ncccc1-c1nc2ccc(-n3cccn3)nc2n1-c1ccc2c(c1)CC[C@@H]2n1ccc(=O)cc1 [Compound 83, (S)-1-(5-(2-(2-aminopyridin-3-yl)-5-(1H-pyrazol-1-yl)-3H-imidazo[4,5-b]pyridin-3-yl)-2,3-dihydro-1H-inden-1-yl)pyridin-4(1H)-one]			0.867 µM	0.139 µM
Nc1ncccc1-c1nc2ccc(-n3cccn3)nc2n1-c1ccc2c(c1)CC[C@@H]2NC1CC2(CCCN(c3ccccn3)C2)C1 (stereo partly shown) [Compound 467]	3.56 µM	0.358 µM		
Nc1ncccc1-c1nc2ccc(-n3ccc(OC(F)F)n3)nc2n1-c1ccc2c(c1)CC[C@@H]2NC1CCN(C(=O)C2CC2)CC1 [Compound 483]	7.44 µM	0.0309 µM		
COc1ccc(C(=O)N[C@H]2CCc3cc(-n4c(-c5cccnc5N)nc5ccc(-n6cccn6)nc54)ccc32)cc1F [Compound 241]			0.0157 µM	0.00406 µM
N[C@@H]1c2ccc(-n3c(-c4ccccc4F)nc4ccc(-n5ccc(N6CCOCC6)n5)nc43)cc2CC1F (stereo partly shown) [Compound 571]	0.176 µM	0.00222 µM		
Nc1ncccc1-c1nc2ccc(-n3cccn3)nc2n1-c1ccc2c(c1)CC[C@@H]2NC1CCN(C(=O)C2CC2)C1 (stereo partly shown) [Compound 462]	2.37 µM	0.225 µM		
Cc1ccc(C(=O)N[C@H]2CCc3cc(-n4c(-c5cccnc5N)nc5ccc(-c6nc(C)co6)nc54)ccc32)cn1 [Compound 267]			0.286 µM	0.0146 µM
Cc1ccc(C(=O)N[C@H]2CCc3cc(-n4c(-c5ccccc5)nc5ccc(-n6cccn6)nc54)ccc32)cn1 [Compound 400]	2.1 µM	0.0144 µM		
COCC#Cc1ccc2nc(-c3cccnc3N)n(-c3ccc4c(c3)CC[C@@H]4NC(=O)c3ccc(C(F)F)nc3)c2n1 [Compound 409]	1.29 µM	0.036 µM		
COc1ccn(-c2ccc3nc(-c4cccnc4N)n(-c4ccc5c(c4)CC[C@@H]5NC4[C@@H]5COC[C@H]4CN(C(=O)C4CC4)C5)c3n2)n1 (single isomer, unassigned) [Compound 524]	1.74 µM	0.0484 µM		
Cc1ncccc1OCC1CCc2cc(-n3c(-c4cccnc4N)nc4ccc(-n5cccn5)nc43)ccc21 (single isomer, unassigned) [Compound 252, (*)-3-(3-(1-(((2-methylpyridin-3-yl)oxy)methyl)-2,3-dihydro-1H-inden-5-yl)-5-(1H-pyrazol-1-yl)-3H-imidazo[4,5-b]pyridin-2-yl)pyridin-2-amine]			2.61 µM	0.599 µM
Nc1ncccc1-c1nc2ccc(-n3cccn3)nc2n1-c1ccc2c(c1)CC[C@@H]2NCc1ccccn1 [Compound 131]			0.785 µM	0.0425 µM
Nc1ncccc1-c1nc2ccc(-n3cccn3)nc2n1-c1ccc2c(c1)CC[C@@H]2n1cc(-c2cccnc2)nn1 [Compound 199]			0.0831 µM	0.0106 µM
Cc1cn2cc(C(=O)N[C@H]3CCc4cc(-n5c(-c6cccnc6N)nc6ccc(-n7cccn7)nc65)ccc43)ccc2n1 [Compound 72]			0.0281 µM	0.00795 µM
Nc1ncccc1-c1nc2ccc(-n3cccn3)nc2n1-c1ccc2c(c1)CC[C@@H]2NC1CCN(C(=O)[C@@H]2CCO2)CC1 [Compound 424]	5.38 µM	0.122 µM		
Cc1ncccc1CN[C@H]1CCc2cc(-n3c(-c4cccnc4N)nc4ccc(-n5cccn5)nc43)ccc21 [Compound 140]			0.576 µM	0.0315 µM
Nc1ncccc1-c1nc2ccc(-n3cccn3)nc2n1-c1ccc2c(c1)CC[C@@H]2NC(=O)c1cnc(C(F)F)nc1 [Compound 114]			0.102 µM	0.00915 µM
CCOc1ccn(-c2ccc3nc(-c4cccnc4N)n(-c4ccc5c(c4)CC[C@@H]5NC4CCN(C(=O)C5CC5)CC4)c3n2)n1 [Compound 486]	1.07 µM	0.0251 µM		
Nc1ncccc1-c1nc2ccc(-n3ccc(N4CCC4)n3)nc2n1-c1ccc2c(c1)CC[C@@H]2NC1CCN(C(=O)C2CC2)CC1 [Compound 562]	0.43 µM	0.00977 µM		
COc1cc(C(=O)N[C@H]2CCc3cc(-n4c(-c5cccnc5N)nc5ccc(-n6cccn6)nc54)ccc32)n(C)n1 [Compound 158]			0.124 µM	0.0135 µM

Now from value to compound:

IC50 (AKT2; [1])	IC50 (AKT1 WT; [1])	IC50 (AKT2; [2])	IC50 (AKT1 WT; [2])	Compound
0.973 µM	0.0576 µM			COc1ccn(-c2ccc3nc(-c4cccnc4N)n(-c4ccc5c(c4)CC(F)[C@@H]5NC4CN(C(=O)C5CC5)C4)c3n2)n1 (stereo partly shown) [Compound 493]
0.689 µM	0.0129 µM			Cn1ccc(N2CCC(N[C@H]3CCc4cc(-n5c(-c6cccnc6N)nc6ccc(-n7ccc(N8CCC8)n7)nc65)ccc43)CC2)n1 [Compound 596]
		6.64 µM	0.119 µM	CC(C)(O)c1cn([C@H]2CCc3cc(-n4c(-c5cccnc5N)nc5ccc(-n6cccn6)nc54)ccc32)nn1 [Compound 219]
> 10 µM	> 1 µM			CS(=O)(=O)Nc1ccn(-c2ccc3nc(-c4cccnc4N)n(-c4ccc5c(c4)CC[C@@H]5NC4CCN(C(=O)C5CC5)CC4)c3n2)n1 [Compound 582]
		1.27 µM	0.08 µM	CN1CC(Oc2cc(C(=O)N[C@H]3CCc4cc(-n5c(-c6cccnc6N)nc6ccc(-n7cccn7)nc65)ccc43)ccn2)C1 [Compound 179]
0.679 µM	0.0475 µM			CN1CCC(n2ccc(-c3ccc4nc(-c5cccnc5N)n(-c5ccc6c(c5)CC[C@@H]6NC5CCN(C(=O)C6CC6)CC5)c4n3)n2)CC1 [Compound 570]
		0.456 µM	0.0209 µM	Cc1csc(-c2ccc3nc(-c4cccnc4N)n(-c4ccc5c(c4)CC[C@@H]5NC(=O)c4nccnc4C)c3n2)n1 [Compound 302]
		> 10 µM	0.285 µM	Cc1nccnc1C(=O)N[C@H]1CCc2cc(-n3c(-c4cccnc4N)nc4ccc(-c5cnn(C)n5)nc43)ccc21 [Compound 271]
0.686 µM	0.0264 µM			CCC#Cc1ccc2nc(-c3cccnc3N)n(-c3ccc4c(c3)CC[C@@H]4NC(=O)c3ccc(C(F)F)nc3)c2n1 [Compound 412]
		1.27 µM	0.025 µM	Nc1ncccc1-c1nc2ccc(-n3cccn3)nc2n1-c1ccc2c(c1)CC[C@@H]2n1cc(C2CCO2)nn1 (stereo partly shown) [Compound 353]
		0.315 µM	0.0247 µM	Nc1ncccc1-c1nc2ccc(-n3cccn3)nc2n1-c1ccc2c(c1)CC[C@@H]2NC(=O)c1cc2ncccn2n1 [Compound 176]
		0.687 µM	0.0299 µM	Cc1cc(C(=O)N[C@H]2CCc3cc(-n4c(-c5cccnc5N)nc5ccc(-n6cccn6)nc54)ccc32)nn1C(F)F [Compound 166]
0.296 µM	0.0131 µM			COCCOc1ccn(-c2ccc3nc(-c4cccnc4N)n(-c4ccc5c(c4)CC[C@@H]5NC4CCN(c5ccn(C)n5)CC4)c3n2)n1 [Compound 551]
1.01 µM	0.116 µM			C#Cc1cc(-n2nccn2)nc2c1nc(-c1cccnc1N)n2-c1ccc2c(c1)CC[C@@H]2NC(=O)c1ccc(C)nc1 [Compound 587]
1.47 µM	0.0217 µM			Nc1ncccc1-c1nc2ccc(-n3nccn3)nc2n1-c1ccc2c(c1)CC[C@@H]2NC(=O)c1ccns1 [Compound 413]
1.28 µM	0.0189 µM			Nc1ncccc1-c1nc2ccc(-n3ccc(OC4CC4)n3)nc2n1-c1ccc2c(c1)CC[C@@H]2NC1CCN(C(=O)C2CC2)CC1 [Compound 497]
3.18 µM	0.107 µM			Cn1c(C(=O)N[C@H]2CCc3cc(-n4c(-c5cccnc5N)nc5ccc(-n6nccn6)nc54)ccc32)cnc1C1CC1 [Compound 540]
0.262 µM	0.0146 µM			COc1cc2c(cn1)CCC2N[C@H]1CCc2cc(-n3c(-c4cccnc4N)nc4ccc(-n5cccn5)nc43)ccc21 (stereo partly shown) [Compound 510]
		0.0548 µM	0.0139 µM	COc1cc(-n2cccn2)nc2c1nc(-c1cccnc1N)n2-c1ccc2c(c1)CC[C@@H]2NC(=O)c1cccnc1C [Compound 124]
		1.57 µM	0.0604 µM	Cn1ncc(-c2ccc3nc(-c4cccnc4N)n(-c4ccc5c(c4)CC[C@@H]5n4ccnn4)c3n2)n1 [Compound 247]
0.764 µM	0.027 µM			Nc1ncccc1-c1nc2ccc(-n3ncc(C4CC4)n3)nc2n1-c1ccc2c(c1)CC[C@@H]2NC(=O)c1cnc(C(F)F)s1 [Compound 588]
2.62 µM	0.188 µM			Nc1ncccc1-c1nc2ccc(-n3cccn3)nc2n1-c1ccc2c(c1)CC[C@@H]2NC1CCN(C(=O)C2COC2)CC1 [Compound 423]
6.24 µM	0.102 µM			Cc1nnc(-c2ccc3nc(-c4cccnc4N)n(-c4ccc5c(c4)CC[C@@H]5NC4CCN(C(=O)C5CC5)CC4)c3n2)s1 [Compound 516]
4.08 µM	0.0274 µM			N#Cc1cc(-n2nccn2)nc2c1nc(-c1cccnc1N)n2-c1ccc2c(c1)CC[C@@H]2NC(=O)c1ccc(C(F)F)nc1 [Compound 548]
